Test results published in US20240344059A1, “Gene Editing of Regulatory Elements” (Vertex Pharmaceuticals Incorporated, priority 2021, published 2024).

Columns and labels:
[1] = test system: CUG foci in myonuclei of DM1 patient myotubes; experiment: FISH staining of CUG RNA foci (SaCas9/SluCas9 sgRNA pairs); format: cell-based, human; set-up: average Foci reduction: concentration or dose not given beside the values; settings: for average Foci reduction: myonuclei of DM1 patient myotubes
Experimental: Primary myotubes were fixed for 15 min with 4% paraformaldehyde (PFA) and washed five times with 1×PBS for 5 min each at room temperature. Before staining, cells were permeabilized with 0.5% triton X-100 in 1×PBS for 5 min at room temperature, and then washed with 30% formamide and 2× saline-sodium citrate (SSC) mixture for 10 min at room temperature. Cells were then stained with 1 ng/μL of Cy3-PNA(CAG)5 probe (PNA Bio, F5001) diluted in 30% formamide, 2×SSC, 2 μg/mL BSA, 66 μg/mL yeast tRNA, and 2 mM vanadyl complex for 15 min at 80° C. Following probe staining, cells were then washed in 30% formamide and 2×SSC mixture for 30 min at 60° C., then washed in 30% formamide and 2×SSC mixture for 30 min at 55° C., and then washed in 1×SSC solution for 10 min at room temperature, and finally washed in 1×PBS for 10 min at room temperature. For staining of myotube nuclei, cells were stained with anti-Myogenin antibody diluted in 1% bovine serum albumin (BSA) for overnight at 4° C. and washed twice with 1×PBS for 5 min each at room temperature. Cells were then incubated with the secondary antibody goat anti-rabbit Alexa 488 (Thermo Fisher, A32731) diluted in 1% BSA for 1 hr at room temperature and washed twice with 1×PBS for 5 min each at room temperature. Next, cells were stained with Hoechst solution (Thermo Fisher, H3569) at 0.1 mg/ml for 5 min and washed once with 1×PBS for 5 min. PBS was aspirated and fresh 100 μl of fresh PBS was added to each well. High-throughput acquisition of images was completed with the ImageXpress Micro Confocal High-Content Imaging System (Molecular Devices). RNA foci quantifications were accomplished with a customized analysis module of the MetaXpress program (Molecular Devices).
Each sgRNA pair consisting of one upstream sgRNA and one downstream sgRNA were assembled with recombinant SaCas9 or SluCas9 protein, respectively, into a ribonucleoprotein (RNP) complex and delivered into primary DM1 patient myoblasts with Amaxa 4D-Nucleofector. Post nucleofection, myoblasts were divided into 6 groups and were treated with DMSO (Groups 1-3) or 3 μM of DNA-dependent Protein Kinase Inhibitor (DNA-PKi) Compound 6 (Group 4-6) for 48 hrs. DNA-PKi was used to boost the excision efficiency and to better understand the contribution of E-boxes to DMPK transcription. 72 hrs post nucleofection, myoblasts from Groups 1 and 4 were collected for genomic DNA isolation, whereas the rest of the groups were subjected to myogenic differentiation to form myotubes. The myotubes were collected on Day 15 post nucleofection (Day 12 post differentiation) for mRNA isolation (Group 2 and 5) and RNA foci staining (Groups 3 and 6) (FIG. 9).

[2] = test system: E-boxes within intron 1 of human DMPK gene; experiment: PCR, TapeStation and ICE verification of E-box excision (SaCas9/SluCas9 RNP); format: cell-based; settings: DM1 patient myoblasts, 3 μM DNA-PKi Compound 6 for 48 h, TapeStation and ICE analysis
Text: Primary healthy myoblasts (P01431-18F) and DM1 patient myoblasts (03001-32F) were obtained from Cook MyoSite. Myoblasts were maintained in myoblast growth medium consisted of Myotonic™ Basal Medium (Cook Myosite, MB-2222) and Myotonic™ Growth Supplement (Cook Myosite, MS-3333) and purified with EasySep Human CD56 Positive Selection Kit II (StemCell Tech, 17855) following the manufacturer's instruction. Purified myoblasts were then banked in liquid nitrogen tank until 3-4 days before nucleofection.
The RNPs were assembled with either recombinant SaCas9 protein (Aldevron) or SluCas9 (Aldevron) and chemically modified sgRNAs (Synthego) at a ratio of 1:3 (protein:sgRNA). Specifically, SaCas9 RNPs complexes were first assembled for individual sgRNAs with 20 pmol of SaCas9 protein and 60 pmol of sgRNAs in 5 μL of P5 Nucleofector Solution. SluCas9 RNPs complexes were first assembled for individual sgRNAs with 15 pmol of SluCas9 and 45 pmol of sgRNAs in 5 μL of P5 Nucleofector Solution. […]
Genomic DNA of DM1 myoblasts was isolated with the Kingfisher Flex purification system (Thermal Fisher) in 96-well format following the manufacturer's instruction. […] The PCR products were analyzed by gel electrophoresis. […]

DMPK mRNA = DMPK mRNA expression by ddPCR (SaCas9/SluCas9 sgRNA pairs); format: cell-based, human; settings: DM1 myotubes, 3 μM DNA-PKi Compound 6 for 48 h
Text: mRNA of DM1 myotubes was isolated with the Kingfisher Flex purification system (Thermal Fisher) in 96-well format following the manufacturer's instruction. cDNA was synthesized with SuperScript™ IV VILO™ Master Mix with ezDNase™ Enzyme (Thermal Fisher) following mRNA isolation.
The primers and probes of ddPCR for hDMPK and GAPDH were pre-designed by Fisher Scientifics qPCR assays (Hs00266705_g1 and Hs01094329_m1). For DMPK expression, one target primer/probe set was used to detect DMPK expression levels, and one reference primer/probe set was used to detect GAPDH expression levels. The 24 μL of ddPCR reaction consisted of 12 μL of Supermix for Probes (no dUTP) (Bio-Rad Laboratories), 1 μL of Reference primers mix (21.6 μM), 1 μL of Reference probe (6 μM), 1 μL of Target primers mix (21.6 μM), 1 μL of Target probe (6 μM), 2 μL of H2O and 6 μL of sample genomic DNA. Droplets were generated using probe oil with the QX200 Droplet Generator (Bio-Rad Laboratories). […] The cycled plate was then transferred and read in the FAM and HEX channels using the Bio-Rad QX200 Droplet Reader (Bio-Rad Laboratories). ddPCR analysis was performed with the Bio-Rad QuantaSoft Pro Software. […]

[3] = test system: CUG RNA foci in primary DM1 patient myoblasts / myotubes; experiment: FISH staining of CUG RNA foci (SpCas9 sgRNA pairs); format: cell-based, human; settings: DM1 patient myotubes nucleofected with SpCas9 sgRNA pairs, Group 5 vs Group 6
Experimental: Primary myoblasts were fixed for 15 min with 4% paraformaldehyde (PFA) and washed five times with 1×PBS for 10 min each at room temperature. Before staining, cells were permeabilized with 0.5% triton X-100 in 1×PBS for 5 min at room temperature, and then washed with 30% formamide and 2× saline-sodium citrate (SSC) mixture for 10 min at room temperature. Cells were then stained with 1 ng/μL of Cy3-PNA(CAG)5 probe (PNA Bio, F5001) diluted in 30% formamide, 2×SSC, 2 μg/mL BSA, 66 μg/mL yeast tRNA, and 2 mM vanadyl complex for 15 min at 80° C. Following probe staining, cells were then washed in 30% formamide and 2×SSC mixture for 30 min at 42° C., then washed in 30% formamide and 2×SSC mixture for 30 min at 37° C., and then washed in 1×SSC solution for 10 min at room temperature, and finally washed in 1×PBS for 10 min at room temperature. For staining of myotube nuclei, cells were stained with anti-Myogenin antibody diluted in 1% bovine serum albumin (BSA) for overnight at 4° C. and washed twice with 1×PBS for 10 min each at room temperature. Cells were then incubated with the secondary antibody goat anti-rabbit Alexa 647 (Thermo Fisher, A32728) diluted in 1% BSA for 1 hr at room temperature and washed twice with 1×PBS for 10 min each at room temperature. […] RNA foci quantifications were accomplished with a customized analysis module of the MetaXpress program (Molecular Devices). […]

Molecule | average Foci reduction [1] [%] | other results
Cc1ccnc(N[C@H]2CC[C@@H](Oc3cc(N4CCOCC4)cc4nonc34)CC2)n1 [Compound 6] |  | further average foci number reduction in myonuclei by DNA-PKi ([1]; DM1 patient myotubes, DNA-PKi group versus DMSO group): no further average foci number reduction; expected excision, DNA-PKi group compared to the vehicle group [2]: more apparent expected excision; hDMPK mRNA reduction, DNA-Pki treatment group versus DMSO group (DMPK mRNA): more dramatic hDMPK mRNA reduction; foci-free myonuclei, DNA-PKi-treated versus vehicle-treated [3]: substantially higher
SaU1DI: SaCas9 sgRNA pair SaU1 + SaD1, SEQ ID NOs 1300/1305, delivered as RNP (guide 1 ATGGCCTCTCTGCACCCCGCCT; guide 2 CTGGTTCTCCCACAGGGCCCGC; delivered as SaCas9 RNP, further chemistry not given here) | ~50 | 
SaU3D1: SaCas9 sgRNA pair SaU3 + SaD1, SEQ ID NOs 1302/1305, delivered as RNP (guide 1 TCTCTGCACCCCGCCTCAGGGT; guide 2 CTGGTTCTCCCACAGGGCCCGC; delivered as SaCas9 RNP, further chemistry not given here) | ~50 | 
SaU3D3: SaCas9 sgRNA pair SaU3 + SaD3, SEQ ID NOs 1302/1307, delivered as RNP (guide 1 TCTCTGCACCCCGCCTCAGGGT; guide 2 CTGCGATCCAGGAGGGACAACT; delivered as SaCas9 RNP, further chemistry not given here) | ~50 | 
saU5D1: SaCas9 sgRNA pair SaU5 + SaD1, SEQ ID NOs 1304/1305, delivered as RNP (guide 1 CCATAGAGCCCACTTTTGGGGG; guide 2 CTGGTTCTCCCACAGGGCCCGC; delivered as SaCas9 RNP, further chemistry not given here) | ~50 | 
sluU3D2: SluCas9 sgRNA pair SluU3 + SluD2, delivered as RNP (guide 1 TCTCTGCACCCCGCCTCAGGGT; guide 2 GAAGAACCCAAAGTTGTCCCTC; delivered as SaCas9 RNP, further chemistry not given here) | ~50 | 
sluU3D3: SluCas9 sgRNA pair SluU3 + SluD3, delivered as RNP (guide 1 TCTCTGCACCCCGCCTCAGGGT; guide 2 CTGCGATCCAGGAGGGACAACT; delivered as SaCas9 RNP, further chemistry not given here) | ~50 | 
sluU64D34: control CTG repeat excision SluCas9 sgRNA pair, SEQ ID NOs 1497 and 1498 (guide 1 GGGGCTCGAAGGGTCCTTGTAG; guide 2 CGCGCCAGACGCTCCCCAGAGC; listed as DNA, chemistry not given here) [reference compound] | ~50 | 
